Source: US20230310634A1, “ANTI-HUMAN VISTA ANTIBODIES AND USE THEREOF” (IMMUNEXT, INC., priority 2020, published 2023)
Entries after “also recorded” stand apart in the source; their conditions may differ.

How the values were obtained:
[1] = tested on: LPS-induced cytokine release; assay: LPS-induced systemic inflammation, plasma cytokines post LPS; parameters: species or system mice; settings: mouse, in vivo
Procedure: In order to evaluate the ADC potential efficacy in auto-immune diseases, we used the short-term model of LPS-induced systemic inflammation. Intraperitoneal (i.p.) injection of lipopolysaccharide (LPS) is widely used as a model for acute immune response—both local and systemic—in mice.
Blood was collected at 2 or 4 h post LPS i.p. injection, and plasma isolated for cytokine analyses.
Mice were dosed at 0.5 mg/Kg.
For ADC-INVIVO-30 and 35, the Immune Monitoring Lab (IML, Shared Resources at Dartmouth-Hitchcock Norris Cotton Cancer Center) performed the analyses.
ELISAs were conducted following the manufacturer's included protocol.
Cytokine data are censored when below a […] threshold for IL-12p40 and/or […] threshold for TNF-α as it indicates a failed LPS injection.

[2] = tested on: peritoneal resident macrophages; assay: In vivo treatment / ex vivo activation of peritoneal resident macrophages (TNFα, IL-6); parameters: species or system mice; settings: Experiment 9, 0.2 mg/Kg of GC payload, day −7, supernatants at 24 h
[3] = tested on: LPS stimulated human PBMCs; assay: In vitro potency of steroid payloads in LPS stimulated human PBMCs (IL-1β, IL-6 ELISA); type: cell-based

Row | Compound | potency of conjugated linker/payload in the short term LPS activation model (conclusions) [1] | long term potency in controlling PRM cytokine responses (TNFα, IL-6) [2] | steroid potency as free payloads in LPS-activated human PBMCS (conclusions) [3] | further results
1 | C[C@]12C=CC(=O)C=C1CC[C@@H]1[C@@H]2[C@@H](O)C[C@@]2(C)[C@H]1C[C@H]1O[C@@H](C34CC(Cc5cccc(NC(=O)[C@H](CCC(=O)O)NC(=O)CNC(=O)CBr)c5)(C3)C4)O[C@]12C(=O)CO [INX O, (S)-4-(2-(2-bromoacetamido)acetamido)-5-((3-((3-((6aR,6bS,7S,8aS,8bS,10R,11aR,12aS,12bS)-7-hydroxy-8b-(2-hydroxyacetyl)-6a,8a-dimethyl-4-oxo-2,4,6a,6b,7,8,8a,8b,11a,12,12a,12b-dodecahydro-1H-naphtho[2′,1′:4,5]indeno[1,2-d][1,3]dioxol-10-yl)bicyclo[1.1.1]pentan-1-yl)methyl)phenyl)amino)-5-oxopentanoic acid] | reduced potency | little and non-significant impact; also recorded: very limited potency | – | –
2 | C[C@H](NC(=O)CBr)C(=O)N[C@@H](C)C(=O)NC12CC(Cc3ccc([C@@H]4O[C@@H]5C[C@H]6[C@@H]7CCC8=CC(=O)C=C[C@]8(C)[C@H]7[C@@H](O)C[C@]6(C)[C@]5(C(=O)CO)O4)cc3)(C1)C2 [INX R, (S)-2-(2-bromoacetamido)-N—((S)-1-((3-(4-((6aR,6bS,7S,8aS,8bS,10R,11aR, 12aS,12bS)-7-hydroxy-8b-(2-hydroxyacetyl)-6a,8a-dimethyl-4-oxo-2,4,6a,6b,7,8,8a,8b,11a,12,12a,12b-dodecahydro-1H-naphtho[2′,1′:4,5]indeno[1,2-d][1,3]dioxol-10-yl)benzyl)bicyclo [1.1.1]pentan-1-yl)amino)-1-oxopropan-2-yl)propanamide] | efficacious | – | – | –
3 | C[C@]12C=CC(=O)C=C1CC[C@@H]1[C@@H]2[C@@H](O)C[C@@]2(C)[C@H]1C[C@H]1O[C@@H](c3ccc(CC4CC5(C4)CC(NC(=O)[C@H](CCC(=O)O)NC(=O)CNC(=O)CBr)C5)cc3)O[C@]12C(=O)CO (stereo partly drawn) [INX V, (S)-4-(2-(2-bromoacetamido)acetamido)-5-((6-(4-((6aR,6bS,7S,8aS,8bS,10R,11 aR,12aS,12bS)-7-hydroxy-8b-(2-hydroxyacetyl)-6a,8a-dimethyl-4-oxo-2,4,6a,6b,7,8,8a,8b,11a,12,12a,12b-dodecahydro-1H-naphtho[2′,1′:4,5]indeno[1,2-d][1,3]dioxol-10-yl)benzyl)spiro[3.3]heptan-2-yl)amino)-5-oxopentanoic acid] | – | remarkable long term potency | – | –
4 | CC12C=CC(=O)C=C1CCC1C2C(O)CC2(C)C1CC1OC(c3ccc(Cc4cnc(NC(=O)C(CCC(=O)O)NC(=O)CNC(=O)CBr)s4)cc3)OC12C(=O)CO [INX N, (S)-4-(2-(2-bromoacetamido)acetamido)-5-((5-(4-((6aR,6bS,7S,8aS,8bS,10R,11aR,12aS,12bS)-7-hydroxy-8b-(2-hydroxyacetyl)-6a,8a-dimethyl-4-oxo-2,4,6a,6b,7,8,8a,8b,11a,12,12a,12b-dodecahydro-1H-naphtho[2′,1′:4,5]indeno[1,2-d][1,3]dioxol-10-yl)benzyl)thiazol-2-yl)amino)-5-oxopentanoic acid] | no potency | – | – | –
5 | C[C@@]12CCC3=CC(=O)C=C[C@]3(C)[C@H]1[C@@H](O)C[C@@]1(C)[C@H]2C[C@H]2O[C@@H](c3ccc(CC45C6C7C4C4C5C6C74N)cc3)O[C@]21C(=O)CO (stereo partly drawn) [INX-SM-9, (6aR,6bS,7S,8aS,8bS,10R,11aR,12aS,12bS)-10-(4-((4-aminocuban-1-yl)methyl)phenyl)-7-hydroxy-8b-(2-hydroxyacetyl)-6a,8a-dimethyl-1,2,6a,6b,7,8,8a,8b,11a,12,12a,12b-dodecahydro-4H-naphtho[2′,1′:4,5]indeno[1,2-d][1,3]dioxol-4-one] | – | – | varying degrees of dose dependent steroid potency | IL-1β production ([3]; Experiment 3, 1000-0.2 nM, 1 ng/mL LPS, 24 hr, n=2 donors): dose dependent inhibition
6 | C[C@]12C=CC(=O)C=C1[C@@H](F)C[C@H]1[C@@H]3C[C@H]4O[C@H](c5ccc(CC67CC(N)(C6)C7)cc5)O[C@@]4(C(=O)CO)[C@@]3(C)C[C@H](O)[C@@]12F [INX-SM-74, (2S,6aS,6bR,7S,8aS,8bS,10S,11aR,12aS,12bS)-10-(4-((3-aminobicyclo[1.1.1]pentan-1-yl)methyl)phenyl)-2,6b-difluoro-7-hydroxy-8b-(2-hydroxyacetyl)-6a,8a-dimethyl-1,2,6a,6b,7,8,8a,8b,11a,12,12a,12b-dodecahydro-4H-naphtho[2′,1′:4,5]indeno[1,2-d][1,3]dioxol-4-one] | – | – | varying degrees of dose dependent steroid potency; also recorded: moderate potency | impact of halogenation of the steroid ring on potency ([3]; Experiment 6, 1000-0.16 nM, compared with INX-SM-3): dose dependent potency
7 | C[C@]12C=CC(=O)C=C1CC[C@@H]1[C@@H]2[C@@H](O)C[C@@]2(C)[C@H]1C[C@H]1O[C@@H](c3ccc(CC4(N)COC4)cc3)O[C@]12C(=O)CO [INX-SM-33, (6aR,6bS,7S,8aS,8bS,10R,11aR,12aS,12bS)-10-(4-((3-aminooxetan-3-yl)methyl)phenyl)-7-hydroxy-8b-(2-hydroxyacetyl)-6a,8a-dimethyl-1,2,6a,6b,7,8,8a,8b,11a,12,12a,12b-dodeca hydro-4H-naphtho[2′,1′:4,5]indeno[1,2-d][1,3]dioxol-4-one] | – | – | varying degrees of dose dependent steroid potency; also recorded: lowest potency among the R stereoisomers | potency relative to the other compounds of the experiment ([3]; 1 ng/mL LPS, 24 hr): least potent compound among these compounds tested; IL-1β and IL-6 production ([3]; Experiment 5, 1000-0.5 nM, 1 ng/mL LPS, 24 hr, n=1 donor): dose dependent inhibition; also recorded: modest inhibition
8 | C[C@]12C=CC(=O)C=C1[C@@H](F)C[C@H]1[C@@H]3C[C@H]4O[C@@H](c5ccc(CC67CC(NC(=O)[C@H](CCC(=O)O)NC(=O)CNC(=O)CBr)(C6)C7)cc5)O[C@@]4(C(=O)CO)[C@@]3(C)C[C@H](O)[C@@]12F [INX S, (S)-4-(2-(2-bromoacetamido)acetamido)-5-((3-(4-((2S,6aS,6bR,7S,8aS,8bS, 10R,11 aR,12aS,12bS)-2,6b-difluoro-7-hydroxy-8b-(2-hydroxyacetyl)-6a,8a-dimethyl-4-oxo-2,4,6a,6b,7,8,8a,8b,11a,12,12a,12b-dodecahydro-1H-naphtho[2′,1′:4,5]indeno[1,2-d][1,3]dioxol-10-yl)benzyl)bicyclo [1.1.1]pentan-1-yl)amino)-5-oxopentanoic acid] | – | remarkable long term potency; also recorded: increased potency relative to INX P | – | –
9 | C[C@]12C=CC(=O)C=C1CC[C@@H]1[C@@H]2[C@@H](O)C[C@@]2(C)[C@H]1C[C@H]1O[C@@H](c3cnc(Cc4cccc(N)c4)s3)O[C@]12C(=O)CO [INX-SM-6, (6aR,6bS,7S, 8aS,8bS,10R,11aR,12aS,12bS)-10-(2-(3-aminobenzyl)thiazol-5-yl)-7-hydroxy-8b-(2-hydroxyacetyl)-6a,8a-dimethyl-1,2,6a,6b,7,8,8a,8b, 11a,12,12a,12b-dodecahydro-4H-naphtho[2′,1′:4,5]indeno[1,2-d][1,3]dioxol-4-one] | – | – | varying degrees of dose dependent steroid potency | IL-1β production ([3]; Experiment 2, 1000-1 nM, 1 ng/mL LPS, 24 hr, n=1 donor): show inhibition in IL-1β production
10 | C[C@]12C=CC(=O)C=C1CC[C@@H]1[C@@H]2[C@@H](O)C[C@@]2(C)[C@H]1C[C@H]1O[C@@H](c3ccc(CC45CC(NC(=O)[C@H](CCC(=O)O)NC(=O)CNC(=O)CBr)(C4)C5)cc3)O[C@]12C(=O)CO [INX P, (S)-4-(2-(2-bromoacetamido)acetamido)-5-((3-(4-((6aR,6bS,7S,8aS,8bS,10R,11 aR,12aS,12bS)-7-hydroxy-8b-(2-hydroxyacetyl)-6a,8a-dimethyl-4-oxo-2,4,6a,6b,7,8,8a,8b,11a,12,12a,12b-dodecahydro-1H-naphtho[2′,1′:4,5]indeno[1,2-d][1,3]dioxol-10-yl)benzyl)bicycle[1.1.1]pentan-1-yl)amino)-5-oxopentanoic acid] | more potent | – | – | –
11 | C[C@]12C=CC(=O)C=C1CC[C@@H]1[C@@H]2[C@@H](O)C[C@@]2(C)[C@H]1C[C@H]1O[C@@H](c3ccc(CC45CC(NC(=O)[C@H](CCCCN)NC(=O)CNC(=O)CBr)(C4)C5)cc3)O[C@]12C(=O)CO [INX W, (S)-6-amino-2-(2-(2-bromoacetamido)acetamido)-N-(3-(4-((6aR,6bS,7S,8aS,8bS,10R,11aR,12aS,12bS)-7-hydroxy-8b-(2-hydroxyacetyl)-6a,8a-dimethyl-4-oxo-2,4,6a,6b,7,8,8a,8b,11a,12,12a,12b-dodecahydro-1H-naphtho[2′,1′:4,5]indeno[1,2-d][1,3]dioxol-10-yl)benzyl)bicycle [1.1.1]pentan-1-yl)hexanamide] | efficacious | remarkable long term potency; also recorded: increased potency relative to INX P and INX R | – | –
